Common to all, as to format: physicochemical
The nature of data set [1]: Krafft point of aqueous dispersion of aldonamide. The note with it: for Krafft Point (0.1%): 0.1% in water by weight; for Krafft Point (1.0%): 1.0% in water by weight. On the procedure:
The temperature at and above which surfactants begin to form micelles instead of precipitates is referred to as the Krafft point (Tk) and at this temperature the solubility of a surfactant becomes equal to its CMC (numerical value at which micelles are formed).
The Krafft point was measured by preparing 650 ml of a 0.1% or 1.0% dispersion of aldonamide in water by weight. If the surfactant was soluble at room temperature, the solution was slowly cooled to 0° C. […] (less than zero). If it precipitated out of solution, the temperature at which precipitation occurs was taken as the Krafft point.
If the surfactant was insoluble at :room temperature, the dispersion was slowly heated until the solution became homogeneous. It was then slowly cooled until precipitation occurred. The temperature at which the surfactant precipitates out of solution upon cooling was taken as the Krafft point.

Data set [2] is described as follows: Ross-Miles foam height. Further details: key: X: low water solubility. foam height cannot be measured. The note with it: Examples 82-83; for Foam Height Final (symbol): after 10 minutes. The procedure: (§1) Since most of the foaming data on surfactants is typically obtained by the Ross-Miles Foam Height Assay (Ross, J. and Miles, G. D. Am Soc. for Testing Material Method D1173-63 Philadelphia, Pa. (1953); Oil & Soap (1958) 62:1260) the foaming ability of these surfactants were acquired using this method.
(§2) In the Ross-Miles method, 200 mL of a surfactant solution contained in a pipette of specified dimensions with a 2.9-mm-i.d. orifice is allowed to fall 90 cm onto 50 mL of the same solution contained in a cylindrical vessel maintained at a given temperature by means of a water jacket. The height of the foam produced in the cylindrical vessel is read immediately after all the solution has run out of the pipette and then again after a given amount of time.
(§3) Using this method, the foam production (initial foam height in mm) and foam stability (final foam height after 10 minutes in mm) were measured at 0.1% aldonamide concentration, 40° C. and 0 ppm (parts per million) hardness. Aldonamides that were not soluble at 40° C. were measured at about 5°-10° C. above their Krafft points.

Data set [3] can be described thus: Ross-Miles foam height. The settings on record: 0.1% aldonamide, 40° C. (or about 5°-10° C. above Krafft point if not soluble), 0 ppm hardness; for Foam Height Final: after 10 minutes. On the procedure:
as §1, §2, §3

Data on 45 molecules can be found in US5521293A (Lever Brothers Company, Division of Conopco, Inc., priority 1995, dated 1996).

With `CCCCCCCCCCCCOCCOCCOC(=O)CNC(=O)[C@H](O)[C@@H](O)[C@H](O)[C@H](O)CO` [Z, N-D-Gluconyl Dodecyldi(oxyethyl) Glycinate], in data set [1], the “Krafft Point (0.1%)” value is less than 0 °C.
For the molecule `CCCCCCCCCCCCCCNC(=O)[C@H](O)[C@@H](O)[C@H](O[C@H]1O[C@H](CO)[C@@H](O)[C@H](O)[C@H]1O)[C@H](O)CO` [RR, C14 D-Maltobionamide], the “Krafft Point (1.0%)” value in data set [1] worked out at 46 °C.
Consider `CCCCCCCCCCCCNC(=O)C(O)C(O)C(O)C(O)C(O)C(O)CO` [FF, C12 D-Glucooctonamide], for which, in data set [1], the “Krafft Point (0.1%)” value is 86 °C. Also, in data set [2], the “Foam Height Final (symbol)” value is listed as “X” and the “Foam Height Initial (symbol)” value is “X”.
For the molecule `CCCCCCCCCCCCCCOCCCNC(=O)[C@H](O)[C@@H](O)[C@H](O[C@@H]1O[C@H](CO)[C@H](O)[C@H](O)[C@H]1O)[C@H](O)CO` [ZZ, tetradecyloxypropyl D-lactobionamide], the “Krafft Point (1.0%)” value in data set [1] was less than 0 °C.
`CCCCCCCCCNC(=O)[C@H](O)[C@@H](O)[C@H](O)[C@H](O)CO` [E, C9 D-Gluconamide]: the “Krafft Point (0.1%)” value in data set [1] amounted to 53 °C.
As to `CCCCCCCCCCCCOCCCNC(=O)[C@H](O)[C@H](O)[C@@H](O)[C@H](O)[C@H](O)CO` [KK, C12 Oxypropyl D-Glucoheptonamide], the “Krafft Point (0.1%)” value in data set [1] stood at 73 °C.
In the case of `CCCCCCCCCCCCOC(=O)CNC(=O)[C@H](O)[C@@H](O)[C@H](O[C@@H]1O[C@H](CO)[C@H](O)[C@H](O)[C@H]1O)[C@H](O)CO` [AAA, N-D-lactobionyl dodecyl glycinate], the “Krafft Point (1.0%)” value in data set [1] was less than 0 °C.
For “dodecyl to pentadecyloxypropylaminopropyl D-gluconamide [EE]”, in data set [1], the “Krafft Point (0.1%)” value was less than 0 °C.
In the case of `CCCCCCCCCCCCOCCCNC(=O)[C@H](O)[C@@H](O)[C@H](O)[C@H](O)CO` [Entry S, C12 Oxypropyl D-Gluconamide], the “Krafft Point (0.1%)” value in data set [1] worked out at 61 °C.
Still for that read-out and setting: as for `CCCCCCCCNC(=O)[C@H](O)[C@@H](O)[C@H](O)[C@H](O)CO` [D, C8 D-Gluconamide], the figure is 12 °C.
Consider “dodecyl to pentadecyloxypropyl D-lactobionamide [YY]”, for which the “Krafft Point (1.0%)” value in data set [1] was less than 0 °C.
On the same count and under the same terms, as for `CCCCCCCCCCCCCCCCNC(=O)[C@H](O)[C@@H](O)[C@H](O[C@@H]1O[C@H](CO)[C@H](O)[C@H](O)[C@H]1O)[C@H](O)CO` [TT, C16 D-Lactobionamide], the figure is 64 °C; as for `CCCCCCCCCCCCNC(=O)[C@H](O)[C@@H](O)[C@H](O[C@@H]1O[C@H](CO)[C@H](O)[C@H](O)[C@H]1O)[C@H](O)CO` [OO, C12 D-Lactobionamide], 38 °C.
As for oleylaminopropyl D-lactobionamide [DDD], the “Krafft Point (1.0%)” value in data set [1] was less than 0 °C. For the same molecule, the “Foam Height Initial” value in data set [3] was 169 mm.
In the case of soyaaminopropyl D-gluconamide [BB], the “Krafft Point (0.1%)” value in data set [1] was less than 18 °C.
Turning to Iso C10 Oxypropyl D-Gluconamide, the “Krafft Point (0.1%)” value in data set [1] is less than 0 °C. In addition, in data set [3], the “Foam Height Final” value is recorded as 206 mm and the “Foam Height Initial” value worked out at 213 mm.
`CCCCCCCCCCCNC(=O)[C@H](O)[C@@H](O)[C@H](O[C@@H]1O[C@H](CO)[C@H](O)[C@H](O)[C@H]1O)[C@H](O)CO` [NN, C11 D-Lactobionamide]: in data set [1], the “Krafft Point (1.0%)” value was found to be 61 °C.
As for “C8 /C10 Oxypropyl D-Glucoheptonamide [II]”, in data set [1], the “Krafft Point (0.1%)” value is 60 °C. In addition, in data set [3], the “Foam Height Final” value worked out at 90 mm and the “Foam Height Initial” value is on record as 221 mm.
On to “Iso C10 Oxypropyl D-Glucoheptonamide [JJ]”, for which the “Krafft Point (0.1%)” value in data set [1] was determined as 18 °C. Moreover, in data set [3], the “Foam Height Final” value was found to be 204 mm and the “Foam Height Initial” value is listed as 215 mm.
For `CCCCCCCCCCCCOC(=O)CCNC(=O)[C@H](O)[C@@H](O)[C@H](O[C@@H]1O[C@H](CO)[C@H](O)[C@H](O)[C@H]1O)[C@H](O)CO` [BBB, N-D-lactobionyl dodecyl β-alaninate], the “Krafft Point (1.0%)” value in data set [1] was less than 0 °C.
On to `CCCCCCCCCCCNC(=O)[C@H](O)[C@@H](O)[C@H](O)[C@H](O)CO` [G, C11 D-Gluconamide], for which the “Krafft Point (0.1%)” value in data set [1] came out at 87 °C. Moreover, in data set [2], the “Foam Height Final (symbol)” value is “X” and the “Foam Height Initial (symbol)” value was “X”.
With `CCCCCCCCCCCCCCNC(=O)[C@H](O)[C@@H](O)[C@H](O[C@@H]1O[C@H](CO)[C@H](O)[C@H](O)[C@H]1O)[C@H](O)CO` [QQ, C14 D-Lactobionamide], the “Krafft Point (1.0%)” value in data set [1] came to 18 °C.
The same measure, in the same setting: as for `CCCCCCCCCCCCOCCCNC(=O)[C@H](O)[C@@H](O)[C@H](O[C@H]1O[C@H](CO)[C@@H](O)[C@H](O)[C@H]1O)[C@H](O)CO` [XX, dodecyloxypropyl D-maltobionamide], the figure is less than 0 °C.
On to `CCCCC(CC)COCCCNC(=O)[C@H](O)[C@@H](O)[C@H](O)[C@H](O)CO` (stereo partly drawn) [P, Ethylhexyloxypropyl D-Gluconamide], for which the “Krafft Point (0.1%)” value in data set [1] was less than 0 °C.
The same measure, in the same setting: as for `CCCCCCCCCCCCCCOCCCNC(=O)[C@H](O)[C@@H](O)[C@H](O)[C@H](O)CO` [V, C14 Oxypropyl D-Gluconamide], the figure is 53 °C.
Same read-out and setting: for octyl/decyloxypropyl D-ribonamide the value was 10 °C; for cocoaminopropyl D-gluconamide [AA], 18 °C.
As to `CCCCCCCNC(=O)[C@H](O)[C@@H](O)[C@H](O)[C@H](O)CO` [C, C7 D-Gluconamide], the “Krafft Point (0.1%)” value in data set [1] is less than 0 °C.
On to “octyl/decyloxypropyl D-lactobionamide [VV]”, for which, in data set [1], the “Krafft Point (1.0%)” value is less than 0 °C.
As to `CCCCCCCCCCCCOC(=O)C(C)NC(=O)[C@H](O)[C@@H](O)[C@H](O)[C@H](O)CO` (mixture of isomers) [Y, N-D-Gluconyl Dodecyl DL-Alaninate], the “Krafft Point (0.1%)” value in data set [1] amounted to 53 °C.
Consider `CCCCCCCCCCCCNC(=O)[C@H](O)[C@H](O)[C@@H](O)[C@H](O)[C@H](O)CO` [HH, C12 D-Glucoheptonamide], for which the “Krafft Point (0.1%)” value in data set [1] is 91 °C. For the same molecule, in data set [2], the “Foam Height Final (symbol)” value is reported as “X” and the “Foam Height Initial (symbol)” value is listed as “X”.
Consider `CCCCCCCCCNC(=O)[C@H](O)[C@@H](O)[C@H](O[C@@H]1O[C@H](CO)[C@H](O)[C@H](O)[C@H]1O)[C@H](O)CO` [MM, nonyl D-lactobionamide], for which, in data set [1], the “Krafft Point (1.0%)” value is 42 °C.
With “Iso C13 Oxypropylaminopropyl D-Gluconamide [DD]”, the “Krafft Point (0.1%)” value in data set [1] is less than 0 °C. For the same molecule, the “Foam Height Final” value in data set [3] is 178 mm.
Take “dodecyl to pentadecyloxypropylaminopropyl D-lactobionamide [EEE]”: in data set [1], the “Krafft Point (1.0%)” value is less than 0 °C.
For the molecule `CCCCCCCCCCNC(=O)[C@H](O)[C@@H](O)[C@H](O)[C@H](O)CO` [F, C10 D-Gluconamide], in data set [1], the “Krafft Point (0.1%)” value stood at 75 °C.
On to cocoaminopropyl D-lactobionamide [CCC], for which the “Krafft Point (1.0%)” value in data set [1] was less than 0 °C.
Take “dodecyl to pentadecyloxypropyl D-gluconamide”: the “Krafft Point (0.1%)” value in data set [1] came out at 58 °C.
On to `CCCCCCCCCCCCNC(=O)[C@H](O)[C@H](O)[C@H](O)CO` [A, dodecyl D-ribonamide], for which, in data set [1], the “Krafft Point (0.1%)” value turned out to be 54 °C.
As for `CCCCCCCCCCCCNC(=O)[C@@H](O)[C@H](O)[C@@H](O)[C@@H](O)CO` [I, C12 L-Gluconamide], the “Krafft Point (0.1%)” value in data set [1] turned out to be 91 °C. Besides, in data set [2], the “Foam Height Final (symbol)” value is on record as “X” and the “Foam Height Initial (symbol)” value is reported as “X”.
Regarding `CCCCCCCCCCCC(=O)OCCNC(=O)[C@H](O)[C@@H](O)[C@H](O)[C@H](O)CO` [X, N-D-gluconyl dodecyl ester of ethanolamine], the “Krafft Point (0.1%)” value in data set [1] came out at 63 °C.
Take Iso C13 Oxypropyl D-Gluconamide [T]: the “Krafft Point (0.1%)” value in data set [1] was less than 15 °C.
In the case of `CCCCCCCC/C=C\CCCCCCCCNCCCNC(=O)[C@H](O)[C@@H](O)[C@H](O)[C@H](O)CO` [CC, oleylaminopropyl D-gluconamide], the “Krafft Point (0.1%)” value in data set [1] is less than 0 °C.
Regarding `CCCCCCCCCCCCOC(=O)CNC(=O)[C@H](O)[C@@H](O)[C@H](O)[C@H](O)CO` [W, N-D-gluconyl dodecyl glycinate], in data set [1], the “Krafft Point (0.1%)” value was found to be 63 °C.
In the case of `CCCCCCCCCCCCOCCCNC(=O)[C@H](O)[C@@H](O)[C@H](O[C@@H]1O[C@H](CO)[C@H](O)[C@H](O)[C@H]1O)[C@H](O)CO` [WW, dodecyloxypropyl D-lactobionamide], the “Krafft Point (1.0%)” value in data set [1] is less than 0 °C.
For `CCCCCCCCCCCCCNC(=O)[C@H](O)[C@@H](O)[C@H](O[C@@H]1O[C@H](CO)[C@H](O)[C@H](O)[C@H]1O)[C@H](O)CO` [PP, C13 D-Lactobionamide], the “Krafft Point (1.0%)” value in data set [1] is 70 °C.
